The data set relates to CCRIS mutagenicity, Ames/micronucleus/aberration tests. The experiment in a line: CCRIS mutagenicity studies.

Active and inactive are the calls of the source. How the calls were made is not given here.

With `CC1(C)[C@@H]2CC[C@@]1(C)C(=O)C2=O`, the mutagenic call (Test System: AMES SALMONELLA TYPHIMURIUM, Strain/Indicator: TA97A, Metabolic Activation: NONE, Method: STANDARD PLATE) was “inactive; negative”; the mutagenic call (Test System: AMES SALMONELLA TYPHIMURIUM, Strain/Indicator: TA97A, Metabolic Activation: RAT LIVER S-9, AROCLOR 1254, Method: STANDARD PLATE) was “inactive; negative”; the mutagenic call (Test System: AMES SALMONELLA TYPHIMURIUM, Strain/Indicator: TA98, Metabolic Activation: HAMSTER, LIVER, S-9, AROCLOR 1254, Method: STANDARD PLATE) was “inactive; negative”; the mutagenic call (Test System: AMES SALMONELLA TYPHIMURIUM, Strain/Indicator: TA98, Metabolic Activation: NONE, Method: STANDARD PLATE) was “inactive; negative”; the mutagenic call (Test System: AMES SALMONELLA TYPHIMURIUM, Strain/Indicator: TA98, Metabolic Activation: RAT LIVER S-9, AROCLOR 1254, Method: STANDARD PLATE) is “inactive; negative”; the mutagenic call (Test System: AMES SALMONELLA TYPHIMURIUM, Strain/Indicator: TA98, Metabolic Activation: RAT, LIVER, S-9, AROCLOR 1254, Method: STANDARD PLATE) is “inactive; negative”. Besides, the mutagenic call was “inactive; negative” (Test System: AMES SALMONELLA TYPHIMURIUM, Strain/Indicator: TA100, Metabolic Activation: HAMSTER, LIVER, S-9, AROCLOR 1254, Method: STANDARD PLATE); “inactive; negative” (Test System: AMES SALMONELLA TYPHIMURIUM, Strain/Indicator: TA100, Metabolic Activation: NONE, Method: STANDARD PLATE); “inactive; negative” (Test System: AMES SALMONELLA TYPHIMURIUM, Strain/Indicator: TA100, Metabolic Activation: RAT LIVER S-9, AROCLOR 1254, Method: STANDARD PLATE); “inactive; negative” (Test System: AMES SALMONELLA TYPHIMURIUM, Strain/Indicator: TA100, Metabolic Activation: RAT, LIVER, S-9, AROCLOR 1254, Method: STANDARD PLATE); “inactive; negative” (Test System: AMES SALMONELLA TYPHIMURIUM, Strain/Indicator: TA102, Metabolic Activation: NONE, Method: STANDARD PLATE); “inactive; negative” (Test System: AMES SALMONELLA TYPHIMURIUM, Strain/Indicator: TA102, Metabolic Activation: RAT LIVER S-9, AROCLOR 1254, Method: STANDARD PLATE). For the same molecule, the mutagenic call (Test System: AMES SALMONELLA TYPHIMURIUM, Strain/Indicator: TA1535, Metabolic Activation: HAMSTER, LIVER, S-9, AROCLOR 1254, Method: STANDARD PLATE) is “inactive; negative”; the mutagenic call (Test System: AMES SALMONELLA TYPHIMURIUM, Strain/Indicator: TA1535, Metabolic Activation: NONE, Method: STANDARD PLATE) was “inactive; negative”; the mutagenic call (Test System: AMES SALMONELLA TYPHIMURIUM, Strain/Indicator: TA1535, Metabolic Activation: RAT, LIVER, S-9, AROCLOR 1254, Method: STANDARD PLATE) is “inactive; negative”; the mutagenic call (Test System: AMES SALMONELLA TYPHIMURIUM, Strain/Indicator: TA1537, Metabolic Activation: HAMSTER, LIVER, S-9, AROCLOR 1254, Method: STANDARD PLATE) is “inactive; negative”; the mutagenic call (Test System: AMES SALMONELLA TYPHIMURIUM, Strain/Indicator: TA1537, Metabolic Activation: NONE, Method: STANDARD PLATE) was “inactive; negative”; the mutagenic call (Test System: AMES SALMONELLA TYPHIMURIUM, Strain/Indicator: TA1537, Metabolic Activation: RAT, LIVER, S-9, AROCLOR 1254, Method: STANDARD PLATE) was “inactive; negative”. Also, the mutagenic call was “inactive; negative” (Test System: AMES SALMONELLA TYPHIMURIUM, Strain/Indicator: TA1538, Metabolic Activation: HAMSTER, LIVER, S-9, AROCLOR 1254, Method: STANDARD PLATE); “inactive; negative” (Test System: AMES SALMONELLA TYPHIMURIUM, Strain/Indicator: TA1538, Metabolic Activation: NONE, Method: STANDARD PLATE); “inactive; negative” (Test System: AMES SALMONELLA TYPHIMURIUM, Strain/Indicator: TA1538, Metabolic Activation: RAT, LIVER, S-9, AROCLOR 1254, Method: STANDARD PLATE); “active; positive” (Test System: Mouse lymphoma, Strain/Indicator: L5178Y (tk+/tk-), Metabolic Activation: None, Method: Suspension/plate); “inactive; negative” (Test System: Mouse lymphoma, Strain/Indicator: L5178Y (tk+/tk-), Metabolic Activation: Rat, Liver, S-9, Aroclor 1254, Method: Suspension/plate).
Turning to `CCCCN`, the mutagenic call reads like this: (Test System: AMES SALMONELLA TYPHIMURIUM, Strain/Indicator: TA98, Metabolic Activation: HAMSTER, LIVER, S-9, AROCLOR 1254 (10%), Method: PREINCUBATION) “inactive; negative”; (Test System: AMES SALMONELLA TYPHIMURIUM, Strain/Indicator: TA98, Metabolic Activation: NONE, Method: PREINCUBATION) “inactive; negative”; (Test System: AMES SALMONELLA TYPHIMURIUM, Strain/Indicator: TA98, Metabolic Activation: RAT, LIVER, S-9, AROCLOR 1254 (10%), Method: PREINCUBATION) “inactive; negative”; (Test System: AMES SALMONELLA TYPHIMURIUM, Strain/Indicator: TA100, Metabolic Activation: HAMSTER, LIVER, S-9, AROCLOR 1254 (10%), Method: PREINCUBATION) “inactive; negative”; (Test System: AMES SALMONELLA TYPHIMURIUM, Strain/Indicator: TA100, Metabolic Activation: NONE, Method: PREINCUBATION) “inactive; negative”; (Test System: AMES SALMONELLA TYPHIMURIUM, Strain/Indicator: TA100, Metabolic Activation: RAT, LIVER, S-9, AROCLOR 1254 (10%), Method: PREINCUBATION) “inactive; negative”. Further, the mutagenic call by setting is: (Test System: AMES SALMONELLA TYPHIMURIUM, Strain/Indicator: TA1535, Metabolic Activation: HAMSTER, LIVER, S-9, AROCLOR 1254 (10%), Method: PREINCUBATION) “inactive; negative”; (Test System: AMES SALMONELLA TYPHIMURIUM, Strain/Indicator: TA1535, Metabolic Activation: NONE, Method: PREINCUBATION) “inactive; negative”; (Test System: AMES SALMONELLA TYPHIMURIUM, Strain/Indicator: TA1535, Metabolic Activation: RAT, LIVER, S-9, AROCLOR 1254 (10%), Method: PREINCUBATION) “inactive; negative”; (Test System: AMES SALMONELLA TYPHIMURIUM, Strain/Indicator: TA1537, Metabolic Activation: HAMSTER, LIVER, S-9, AROCLOR 1254 (10%), Method: PREINCUBATION) “inactive; negative”; (Test System: AMES SALMONELLA TYPHIMURIUM, Strain/Indicator: TA1537, Metabolic Activation: NONE, Method: PREINCUBATION) “inactive; negative”; (Test System: AMES SALMONELLA TYPHIMURIUM, Strain/Indicator: TA1537, Metabolic Activation: RAT, LIVER, S-9, AROCLOR 1254 (10%), Method: PREINCUBATION) “inactive; negative”.
Take `CCCCN(CC)c1c([N+](=O)[O-])cc(C(F)(F)F)cc1[N+](=O)[O-]`: the mutagenic call is, setting by setting: (End Point: In vitro Chromosomal aberration, Test System: CHO cells, Metabolic Activation: None) “inactive; negative”; (End Point: In vitro Chromosomal aberration, Test System: CHO cells, Metabolic Activation: Rodent, liver, S-9, Aroclor) “inactive; negative”.

For the origin of these results see PubChem BioAssay AID1259407 (Chemical Carcinogenesis Research Information System (CCRIS), 2018).
